Results as given in patent publication US20260250318A1, “COMPOSITIONS AND METHODS FOR CROSSING THE BLOOD BRAIN BARRIER” (VOYAGER THERAPEUTICS, INC., priority 2022, published 2026).

Legend:
Conditions in all cases: synthetic library passage 3, intravenous, relative to wild-type AAV9
[1] = test system: brain, spinal cord, and DRG of the NHPs; assay: NGS fold enrichment of synthetic library (passage 3) in NHPs, first cross-species screen; type: in vivo, cynomolgus macaques (Macaca fascicularis)
Procedure, shortened: (§1)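 Passage-3 synthetic capsid library given intravenously […] to NHPs (2-4 years) and BALB/c or C57Bl/6 mice (n=3, 6-8 weeks). After e.g. 28 days, tissue RNA was RT-PCR amplified and NGS-sequenced; values are fold enrichment of each variant relative to wild-type AAV9.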

brain [2] = assay: NGS fold enrichment of synthetic library (passage 3) in BALB/c mice, first cross-species screen; type: in vivo
Procedure, shortened: as §1

brain [3] = assay: NGS fold enrichment of synthetic library (passage 3) in C57Bl/6 mice, first cross-species screen; type: in vivo
Procedure, shortened: as §1

[4] = RNA from spinal cord of NHPs, NGS
[5] = RNA from brain of BALB/c mice, NGS
[6] = RNA from brain of C57Bl/6 mice, NGS

Sequence | Fold enrichment over AAV9 in the brain of NHPs ([1]; RNA NGS, brain of NHPs) | Fold enrichment over AAV9 in the spinal cord of NHPs ([1]; RNA NGS, spinal cord of NHPs) | Fold enrichment over AAV9 in the brain of Mice (BALB/c) (brain [2]; RNA NGS, brain of BALB/c mice) | Fold enrichment over AAV9 in the brain of Mice (C57Bl/6) (brain [3]; RNA NGS, brain of C57Bl/6 mice) | Fold enrichment over AAV9 in the brain of NHPs ([1]; RNA from brain of NHPs, NGS) | Fold enrichment over AAV9 in the spinal cord of NHPs [1, 4] | Fold enrichment over AAV9 in the brain of Mice (BALB/c) (brain [2]; [5]) | Fold enrichment over AAV9 in the brain of Mice (C57Bl/6) (brain [3]; [6])
GSGQNQQLAITLGT | 1.011 fold | 0.000 fold | 0.143 fold | 0.877 fold |  |  |  | 
GSLGNLQRGQNQQT | 1.003 fold | 0.895 fold | 0.385 fold | 0.947 fold |  |  |  | 
GLLAGKSSGQNQQT | 1.491 fold | 2.981 fold | 0.946 fold | 0.999 fold |  |  |  | 
GSGSTHSKAQNQQT |  |  |  |  | 1.410 fold | 0.515 fold | 0.801 fold | 0.921 fold
GSGLIRTAAQNQQT | 1.822 fold | 8.339 fold | 0.998 fold | 0.808 fold |  |  |  | 
GRHLVTASGQNQQT | 1.411 fold | 2.885 fold | 0.404 fold | 0.648 fold |  |  |  | 
GSGQNQQTLRGSLE |  |  |  |  | 1.179 fold | 1.812 fold | 0.354 fold | 0.853 fold
GSDQNQQTMSSTRT | 1.003 fold | 2.428 fold | 0.835 fold | 1.306 fold |  |  |  | 
GSGQNVSSVHRQQT | 1.045 fold | 0.712 fold | 0.271 fold | 0.383 fold |  |  |  | 
GSGYASHVQQNQQT | 2.146 fold | 3.038 fold | 0.758 fold | 1.157 fold |  |  |  | 
GSGFPKSTEQNQQT |  |  |  |  | 1.376 fold | 2.058 fold | 0.194 fold | 0.610 fold
GSGQSYQRDHNQQT | 1.859 fold | 8.013 fold | 0.323 fold | 0.779 fold |  |  |  | 
GSIGYAGQGQNQQT | 2.157 fold | 4.951 fold | 0.712 fold | 1.604 fold |  |  |  | 
GIFMQTPSGQNQQT | 2.344 fold | 6.198 fold | 0.252 fold | 0.938 fold |  |  |  | 
GSGQNQHSLGNYQT | 2.143 fold | 1.896 fold | 0.606 fold | 1.077 fold |  |  |  | 
GSGQNQQLSAKSST | 1.809 fold | 1.567 fold | 1.115 fold | 1.224 fold |  |  |  | 
